Test results published in patent US9884063B2, “Amido-substituted azole compounds” (Bayer Pharma Aktiengesellschaft, priority 2014, dated 2018).

Experiments:
TNKS2 = molecular target: T1, TNKS2 (Homo sapiens, UniProt Q9H2K2); test: Modified TNKS2 Assay 2 (auto-parsylation, [3H]-NAD+ SPA); type: biochemical; settings: 6 nM TNKS2, 96 well
T1 sequence (Q9H2K2 1-1166): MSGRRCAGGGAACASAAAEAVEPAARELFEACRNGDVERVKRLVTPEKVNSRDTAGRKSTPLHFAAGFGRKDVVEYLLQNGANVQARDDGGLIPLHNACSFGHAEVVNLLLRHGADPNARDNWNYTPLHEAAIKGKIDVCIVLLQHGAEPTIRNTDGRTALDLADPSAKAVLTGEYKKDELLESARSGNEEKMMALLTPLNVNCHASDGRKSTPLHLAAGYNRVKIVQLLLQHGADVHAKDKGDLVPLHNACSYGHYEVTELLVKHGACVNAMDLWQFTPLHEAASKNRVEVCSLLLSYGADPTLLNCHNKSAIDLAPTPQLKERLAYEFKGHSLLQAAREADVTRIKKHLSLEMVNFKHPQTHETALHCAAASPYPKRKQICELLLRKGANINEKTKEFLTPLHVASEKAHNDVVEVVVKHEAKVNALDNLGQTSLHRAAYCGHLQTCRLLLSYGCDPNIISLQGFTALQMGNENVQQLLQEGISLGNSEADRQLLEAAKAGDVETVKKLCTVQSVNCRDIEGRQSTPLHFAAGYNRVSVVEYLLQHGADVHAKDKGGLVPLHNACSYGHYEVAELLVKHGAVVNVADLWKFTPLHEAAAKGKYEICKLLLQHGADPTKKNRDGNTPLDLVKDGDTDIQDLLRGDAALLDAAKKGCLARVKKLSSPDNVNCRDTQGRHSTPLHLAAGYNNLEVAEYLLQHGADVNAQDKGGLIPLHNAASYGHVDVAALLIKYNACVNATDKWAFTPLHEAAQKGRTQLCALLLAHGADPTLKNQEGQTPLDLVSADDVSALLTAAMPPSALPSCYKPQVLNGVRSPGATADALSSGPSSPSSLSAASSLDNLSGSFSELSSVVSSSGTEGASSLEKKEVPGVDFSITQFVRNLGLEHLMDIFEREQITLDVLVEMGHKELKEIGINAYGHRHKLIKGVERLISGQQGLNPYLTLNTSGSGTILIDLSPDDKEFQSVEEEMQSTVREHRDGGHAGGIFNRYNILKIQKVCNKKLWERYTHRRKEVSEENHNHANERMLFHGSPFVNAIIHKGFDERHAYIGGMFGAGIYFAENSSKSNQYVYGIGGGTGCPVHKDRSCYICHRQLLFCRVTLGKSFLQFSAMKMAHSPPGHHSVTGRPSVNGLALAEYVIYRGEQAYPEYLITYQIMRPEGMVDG
Experimental: The potency of selected compounds according to the invention was assessed applying an modified in vitro inhibition assay. Here, the TNKS2 catalyzed NAD^+-dependent ribosylation of the enzyme itself (auto-parsylation) was detected using [^3H]-NAD^+ as substrate and applying the scintillation proximity assay (SPA) method to detect tritium-labeled, parsylated TNKS2. The intensity of the readout signal is proportional to the incorporated [^3H]-NAD^+. Inhibition of TNKS2 leads to a decreased incorporation of [^3H]-NAD^+ and consequently to a lower readout signal intensity. The concentration of a test compound which inhibits the enzyme activity by 50% (corresponds to half of the normed readout signal intensity) is reported as IC50.
The assay was conducted in a 96 well MTP format with the identical TNKS2 enzyme sample and NAD^+ sample as in the histone ribosylation assay with the following modifications: TNKS2 enzyme sample was diluted with a modified assay buffer (50 mM MES pH 7.0, 1 mM DTT, 0.01% Triton X-100) to a final concentration of 6 nM TNKS2 and 10×NAD^+ solution was diluted with the modified assay buffer (s. above) to a final 0.445×NAD^+ solution doped with 100 Bq/ul [^3H]-NAD^+ [Catalog #NET443H050UC, Perkin Elmer, Waltham, Mass., USA]. Substrate solution (10 ul) was incubated with different test compound concentrations (2.5 ul in 10% DMSO in modified assay buffer) or control (2.5 ul 10% DMSO in modified assay buffer only) and enzyme (10 ul) over night at room temperature. Incorporated tritium was measured after addition of 50 ul SPA beads (1 mg/ml) [Catalog #RPNQ0095 20 mg/ml, Perkin Elmer, Waltham, Mass., USA; diluted 1:10 with Dulbecco's phosphate buffered saline, PBS Catalog #D8537, Sigma-Aldrich, Steinheim, Germany] and detection of the photon emission with a beta count plate reader [Wallac MicroBeta®, Perkin Elmer, Waltham, Mass., USA].

[1] = system: wildtype Wnt signaling cascade; test: HEK293 TOP Assay (Super TopFlash luciferase reporter, Wnt-3a stimulated); type: cell-based; settings: Homo sapiens, HEK293, 16 h
Summary of the method: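 Compounds (50 μM down to 15 nM, 3.16-fold steps, in CAFTY buffer pH 7.4, 2 mM Ca2+, 0.01% BSA) tested in parallel on TOP and FOP HEK293 reporter lines to define selective wildtype Wnt inhibition. Pathway driven by recombinant human Wnt-3a applied at 2500–5 ng/ml in two-fold dilutions.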

[2] = HEK293 TOP reporter cell line, Wnt-3a at EC50, 16 hours incubation, compound dilution series 50 μM to 15 nM
[3] = HEK293 TOP reporter cells, Wnt3a at EC50, 16 hours, luciferase

Row | Compound | IC50 (TNKS2) [nM] | IC50 [1, 2] [nM] | IC50 [1, 3] [nM]
1 | CNC(=O)c1nc[nH]c1C(=O)Nc1ccc(NC(=O)c2ccc(OCCN(C)C)cc2Cl)cc1 [Example 25, N^5-[4-({2-chloro-4-[2-(dimethylamino)ethoxy]benzoyl}amino)phenyl]-N^4-methyl-1H-imidazole-4,5-dicarboxamide] | 220 | 720 | 720
2 | CNC(=O)c1nc[nH]c1C(=O)Nc1ccc(NC(=O)c2c(Cl)cccc2Cl)cc1 [Example 26, N^5-{4-[(2,6-dichlorobenzoyl)amino]phenyl}-N^4-methyl-1H-imidazole-4,5-dicarboxamide] | 1600 | 1350 | 800
3 | CNC(=O)c1nc[nH]c1C(=O)Nc1ccc(NC(=O)c2ccccc2Cl)cc1 [Example 27, N^5-{4-[(2-chlorobenzoyl)amino]phenyl}-N^4-methyl-1H-imidazole-4,5-dicarboxamide] | 530 | 390 | 340
4 | CNC(=O)c1nc[nH]c1C(=O)Nc1ccc(NC(=O)c2ccc(OCCN3CCN(C)CC3)cc2Cl)cc1 [Example 28, N^5-[4-({2-chloro-4-[2-(4-methylpiperazin-1-yl)ethoxy]benzoyl}amino)phenyl]-N^4-methyl-1H-imidazole-4,5-dicarboxamide] | 180 | 530 | 680
5 | O=C(Nc1ccc(NC(=O)c2[nH]cnc2C(=O)NCC(F)(F)F)cc1)c1ccc(F)cc1Cl [Example 30, N^4-{4-[(2-chloro-4-fluorobenzoyl)amino]phenyl}-N^5-(2,2,2-trifluoroethyl)-1H-imidazole-4,5-dicarboxamide] | 40 | 190 | 160
6 | CNC(=O)c1nc[nH]c1C(=O)Nc1ccc(NC(=O)c2c(F)cc(F)cc2Cl)cc1 [Example 118, N^5-{4-[(2-chloro-4,6-difluorobenzoyl)amino]phenyl}-N^4-methyl-1H-imidazole-4,5-dicarboxamide] | 140 | 620 | –
7 | O=C(NCCN1CCCCC1)c1nc[nH]c1C(=O)Nc1ccc(NC(=O)c2c(F)cc(F)cc2Cl)cc1 [Example 119, N^5-{4-[(2-chloro-4,6-difluorobenzoyl)amino]phenyl}-N^4-[2-(piperidin-1-yl)ethyl]-1H-imidazole-4,5-dicarboxamide] | 5 | 70 | –
8 | NC(=O)c1nc[nH]c1C(=O)Nc1ccc(NC(=O)c2ccc(F)cc2Cl)cc1 [Example 121] | 70 | 270 | –
9 | CNC(=O)c1nc[nH]c1C(=O)Nc1ccc(NC(=O)c2ccc(O)cc2Cl)cc1 [Example 122, N^5-{4-[(2-chloro-4-hydroxybenzoyl)amino]phenyl}-N^4-methyl-1H-imidazole-4,5-dicarboxamide] | 530 | 280 | –
10 | CNC(=O)c1nc[nH]c1C(=O)Nc1ccc(NC(=O)c2cc(OCCN3CCN(C)CC3)ccc2Cl)cc1 [Example 124, N^5-[4-({2-chloro-5-[2-(4-methylpiperazin-1-yl)ethoxy]benzoyl}amino)phenyl]-N^4-methyl-1H-imidazole-4,5-dicarboxamide] | > 10000 | 50000 | –
11 | CNC(=O)c1nc[nH]c1C(=O)Nc1ccc(NC(=O)c2cc(OCCN3CCCCC3)ccc2Cl)cc1 [Example 125, N^5-[4-({2-chloro-5-[2-(piperidin-1-yl)ethoxy]benzoyl}amino)phenyl]-N^4-methyl-1H-imidazole-4,5-dicarboxamide] | > 10000 | 4100 | –
12 | CC1CCN(CCNC(=O)c2nc[nH]c2C(=O)Nc2ccc(NC(=O)c3ccc(F)cc3Cl)cc2)CC1 [Example 126, N^5-{4-[(2-chloro-4-fluorobenzoyl)amino]phenyl}-N^4-[2-(4-methylpiperidin-1-yl)ethyl]-1H-imidazole-4,5-dicarboxamide] | 7 | 40 | –
13 | COCCNC(=O)c1[nH]cnc1C(=O)Nc1ccc(NC(=O)c2ccc(F)cc2Cl)cc1 [Example 130, N^4-{4-[(2-chloro-4-fluorobenzoyl)amino]phenyl}-N^5-(2-methoxyethyl)-1H-imidazole-4,5-dicarboxamide] | 70 | 250 | –
14 | O=C(Nc1ccc(NC(=O)c2nc[nH]c2C(=O)NC2CC2)cc1)c1ccc(F)cc1 [Example 131, N^5-cyclopropyl-N^4-{4-[(4-fluorobenzoyl)amino]phenyl}-1H-imidazole-4,5-dicarboxamide] | > 10000 | 9200 | –
15 | CC(C)CNC(=O)c1[nH]cnc1C(=O)Nc1ccc(NC(=O)c2ccc(F)cc2Cl)cc1 [Example 147, N^4-{4-[(2-chloro-4-fluorobenzoyl)amino]phenyl}-N^5-isobutyl-1H-imidazole-4,5-dicarboxamide] | 110 | 320 | –
16 | CC(C)(C)CNC(=O)c1[nH]cnc1C(=O)Nc1ccc(NC(=O)c2ccccc2Cl)cc1 [Example 148, N^4-{4-[(2-chlorobenzoyl)amino]phenyl}-N^5-(2,2-dimethylpropyl)-1H-imidazole-4,5-dicarboxamide] | 1100 | 1750 | –
17 | CC1CCN(CC(C)(C)NC(=O)c2[nH]cnc2C(=O)Nc2ccc(NC(=O)c3ccc(F)cc3Cl)cc2)CC1 [Example 155, N^4-{4-[(2-chloro-4-fluorobenzoyl)amino]phenyl}-N^5-[2-methyl-1-(4-methylpiperidin-1-yl)propan-2-yl]-1H-imidazole-4,5-dicarboxamide] | 80 | 660 | –
18 | O=C(Nc1ccc(NC(=O)c2nc[nH]c2C(=O)NC(CO)CO)cc1)c1ccccc1Cl [Example 157, N^4-{4-[(2-chlorobenzoyl)amino]phenyl}-N^5-(1,3-dihydroxypropan-2-yl)-1H-imidazole-4,5-dicarboxamide] | 1400 | 8400 | –
19 | CN1CCN(CCNC(=O)c2[nH]cnc2C(=O)Nc2ccc(NC(=O)c3ccccc3Cl)cc2)CC1 [Example 160, N^4-{4-[(2-chlorobenzoyl)amino]phenyl}-N^5-[2-(4-methylpiperazin-1-yl)ethyl]-1H-imidazole-4,5-dicarboxamide] | 110 | 580 | –
20 | CC1CCN(CCNC(=O)c2[nH]cnc2C(=O)Nc2ccc(NC(=O)c3ccc(F)cc3)cc2)CC1 [Example 164, N^4-{4-[(4-fluorobenzoyl)amino]phenyl}-N^5-[2-(4-methylpiperidin-1-yl)ethyl]-1H-imidazole-4,5-dicarboxamide] | 60 | 910 | –
21 | CC(C)(CNC(=O)c1[nH]cnc1C(=O)Nc1ccc(NC(=O)c2ccccc2Cl)cc1)N1CCCCC1 [Example 165, N^4-{4-[(2-chlorobenzoyl)amino]phenyl}-N^5-[2-methyl-2-(piperidin-1-yl)propyl]-1H-imidazole-4,5-dicarboxamide] | 70 | 290 | –
